According to article PMC8333062, “Chemical tools for epichaperome-mediated interactome dysfunctions of the central nervous system” (Nature Communications, 2021):
Several values for one entry are separate records, joined by “and”; a condition that tells them apart may be missing. Identical values can stand only once. Like-named read-outs stand apart in the source and are kept apart here.

How the values were obtained:
intracranial MDA-MB-468 = assay: Survival studies in mice; format: in vivo, mouse; conditions: 50 mg kg^−1 iv, three times per week, n=7
CYP1A2 = target: T1, CYP1A2 (Homo sapiens, UniProt P05177); assay: Cytochrome P450 profiling, furafylline; format: in vitro ADME; conditions: for % PU-HZ151 remaining: Furafylline
T1 sequence (P05177 1-516): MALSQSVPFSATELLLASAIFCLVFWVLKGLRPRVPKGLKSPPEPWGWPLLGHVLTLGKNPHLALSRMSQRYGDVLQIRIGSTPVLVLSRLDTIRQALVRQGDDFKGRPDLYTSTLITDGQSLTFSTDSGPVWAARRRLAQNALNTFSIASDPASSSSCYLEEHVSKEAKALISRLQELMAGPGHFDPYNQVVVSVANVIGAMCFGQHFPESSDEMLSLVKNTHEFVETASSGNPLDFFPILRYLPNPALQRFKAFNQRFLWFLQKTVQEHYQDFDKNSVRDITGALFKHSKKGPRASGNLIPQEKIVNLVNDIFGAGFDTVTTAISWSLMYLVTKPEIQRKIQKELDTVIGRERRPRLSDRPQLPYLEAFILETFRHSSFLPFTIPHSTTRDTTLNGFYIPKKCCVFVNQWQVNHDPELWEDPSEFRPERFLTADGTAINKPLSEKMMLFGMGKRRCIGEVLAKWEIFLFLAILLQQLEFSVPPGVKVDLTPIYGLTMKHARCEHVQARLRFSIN
Procedure: To identify cytochrome P450 enzymes responsible for PU-HZ151’s metabolism in human liver microsomes the following procedure was followed. Phosphate buffer (100 mM, pH 7.4) was prepared monthly and stored at 4 °C. Frozen stock solutions of human liver microsomes (Life Technologies; Cat# HMMCPL) were used once after thawing and were not refrozen. NADPH stock solution (50 mM) in distilled water was prepared fresh daily. […] The stock solutions of these P450 inhibitors were prepared in DMSO. […] The concentration of the chemical inhibitors used in the assay were furafylline (10 μM), tranylcypromine (2 μM), ketoconazole (1 μM), troleandomycin (20 μM), orphenadrine (50 μM), montelukast (3 μM), sulfaphenazole (10 μM), benzylnirvanol (1 μM), quinidine (1 μM), and 1-aminobenzotriazole (1 mM) for all the P450 enzymes. Timing of the reactions was started following the addition of NADPH/magnesium chloride mix and PU-HZ151. Time-dependent chemical inhibitors (furafylline, troleandomycin, orphenadrine, and 1-aminobenzotriazole) were preincubated with human microsomes in the presence of NADPH and magnesium chloride for 15 min before the addition of PU-HZ151 and timing of reactions was started after addition of PU-HZ151. […] Following brief vortexing and centrifugation, a 200 µL aliquot of the supernatant was transferred to a tube, and 10 µL of haloperidol (1 µg mL^−1) as internal standard was added. Following brief vortexing and centrifugation, 50 µL of supernatant was added to a 96-well plate for subsequent LC-MS/MS analysis. PU-HZ151 was similarly tested as above in the absence of CYP inhibitors for comparative purposes. All samples were assayed in duplicate. […] This was similarly performed for incubations of PU-HZ151 performed in the absence of CYP inhibitor.

[1] = Pharmacokinetic studies in mice (LC-MS/MS); format: in vivo, B6D2F1 mice; parameters: key to Brain level: brain drug concentration in μM, corrected for 0.8 mL/g water space; Plasma level: unit: uM; conditions: for Brain level / Plasma level: listed as PU-HZ151
Procedure: Blood and brain tissue were collected following euthanasia at the scheduled time points of 5, 30 min, 1, 4, and 8 h following iv dosing and of 30 min, 1, 4, and 8 h following po dosing. Brain samples were immediately flash frozen in liquid nitrogen following collection and stored at −80 °C until analysis. Blood samples were collected into an EDTA tube by heart puncture and centrifuged at 17,000×g for 5 min at 4 °C to separate the plasma and immediately frozen on dry ice and stored at −80 °C until analysis. […] This was homogenized, extracted with methylene chloride, and evaporated on a GeneVac. […] Drug concentration (μM) in the brain was then modified to account for an average water space of 0.8 mL g^−1.

[2] = target: HSP90 pools in JNPL3 (AD transgenic) mouse brain lysate; assay: Fluorescence polarization (FP) competitive binding, cy3B-GM; conditions: read-out: FP relative affinity

In the case of CC(C)(C)CNCCn1c(Sc2cc3c(cc2I)OCO3)nc2c(N)ncnc21 [Compound 85], the “survival vs vehicle, log-rank P” value (intracranial MDA-MB-468) is reported as 0.0001, the “% PU-HZ151 remaining” value (CYP1A2; 15 min) is reported as 65.9% and the “% PU-HZ151 remaining” value (CYP1A2; 30 min) is reported as 47.3%. The “% PU-HZ151 remaining” value (CYP1A2; 60 min) was 26.3%, the “inhibition of PU-HZ151 metabolism” value (CYP1A2; furafylline) was 11% and the Brain level ([1]; time 5 min, individual animals) was 15.4588 and 7.86 and 11.67. The Brain level ([1]; time 0.5 h, individual animals) was 4.224 and 4.34 and 4.57, the Brain level ([1]; time 1 h, individual animals) was 2.2188 and 1.91 and 1.47 and the Brain level ([1]; time 4 h, individual animals) was 0.07412 and 0.06266 and 0.11 and 0.04. The Brain level ([1]; time 8 h, individual animals) was 0.009121 and 0.03148 and 0.03 and 0.11, the Plasma level ([1]; time 5 min, individual animals) was 9.01 and 9.336 and 14.2069 and 3.61 and the Plasma level ([1]; time 0.5 h, individual animals) was 1.67 and 1.018 and 1.136 and 1.35. The Plasma level ([1]; time 1 h, individual animals) was 0.32 and 0.7228 and 0.6745 and 0.42, the Plasma level ([1]; time 4 h, individual animals) was 0.02 and 0.03223 and 0.03275 and 0.03 and the Plasma level ([1]; time 8 h, individual animals) was 0.01 (2×) and 0 (2×). The “brain exposure relative to PU-H71” value ([1]; i.v. 10 mg kg^−1) was “approximately ten-fold higher”, the Cmax ([1]; male, B6D2F1, mouse, brain and lung, iv, single i.v. 10 mg/kg) was 10 to 15 µM and the Kp ([1]; male, B6D2F1, mouse, brain, 10 mg kg^−1, oral administration, read-out: brain/plasma) was 1.6. For the same compound, the concentration at 5 min ([1]; male, B6D2F1, mouse, brain, intravenous, 10 mg kg^-1, Brain, time 5 min, individual animals, read-out: Brain level) was 13.5 µM, the concentration at 0.5 h ([1]; male, B6D2F1, mouse, brain, intravenous, 10 mg kg^−1, Brain, time 0.5 h, individual animals, read-out: Brain level) was 4.58 µM and the concentration at 1 h ([1]; male, B6D2F1, mouse, brain, intravenous, 10 mg kg^−1, Brain, time 1 h, individual animals, read-out: Brain level) was 2.06 µM. It also gave a Kp ([1]; male, B6D2F1, mouse, brain, iv, 10 mg kg^−1, read-out: brain to plasma ratio) of 2.35, an AUC ([1]; male, B6D2F1, mouse, brain, iv, i.v. 10 mg kg^−1, read-out: brain exposure, AUC) of 8.25 µM·h and an AUC ([1]; male, B6D2F1, mouse, plasma, iv, i.v. 10 mg kg^−1, read-out: plasma exposure, AUC) of 3.52 µM·h. It also gave a bioavailability ([1]; male, B6D2F1, mouse, plasma, oral, 10 mg kg^−1) of 68% and an EC50 [2] of 5 nM.
